This is an account of results in patent US9669031B2, “MNK inhibitors and methods related thereto” (eFFECTOR Therapeutics, Inc., priority 2014, dated 2017).

For series [1] the following is noted: female, Balb/c, mouse, in vivo, po, 10 mg/kg.
The next series in a line: in vivo. The settings on record: female, Balb/c, mouse, po, 10 mg/kg; for half-life: T½.
Another series addresses Mnk1 (Homo sapiens (Human), UniProt Q9BUB5). Description: biochemical.
The next series deals with Mnk2 (Homo sapiens (Human), UniProt Q9HBH9). The series can be described thus: biochemical.
Mnk2, sequence (Q9HBH9 whole entry): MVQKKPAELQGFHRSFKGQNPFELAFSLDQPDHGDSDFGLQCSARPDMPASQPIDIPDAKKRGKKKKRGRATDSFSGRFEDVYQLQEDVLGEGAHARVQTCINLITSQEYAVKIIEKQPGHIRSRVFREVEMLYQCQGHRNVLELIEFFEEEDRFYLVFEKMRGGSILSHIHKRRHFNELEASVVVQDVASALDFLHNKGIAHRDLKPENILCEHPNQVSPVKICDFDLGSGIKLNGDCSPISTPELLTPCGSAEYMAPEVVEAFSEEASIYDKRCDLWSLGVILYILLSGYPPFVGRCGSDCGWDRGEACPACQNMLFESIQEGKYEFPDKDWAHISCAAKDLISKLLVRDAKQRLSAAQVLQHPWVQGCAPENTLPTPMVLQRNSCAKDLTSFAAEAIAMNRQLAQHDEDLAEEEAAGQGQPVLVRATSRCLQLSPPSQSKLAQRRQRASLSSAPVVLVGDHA

A value given as a limit tells only on which side of the number the result lay.

Mnk1, sequence (Q9BUB5 whole entry): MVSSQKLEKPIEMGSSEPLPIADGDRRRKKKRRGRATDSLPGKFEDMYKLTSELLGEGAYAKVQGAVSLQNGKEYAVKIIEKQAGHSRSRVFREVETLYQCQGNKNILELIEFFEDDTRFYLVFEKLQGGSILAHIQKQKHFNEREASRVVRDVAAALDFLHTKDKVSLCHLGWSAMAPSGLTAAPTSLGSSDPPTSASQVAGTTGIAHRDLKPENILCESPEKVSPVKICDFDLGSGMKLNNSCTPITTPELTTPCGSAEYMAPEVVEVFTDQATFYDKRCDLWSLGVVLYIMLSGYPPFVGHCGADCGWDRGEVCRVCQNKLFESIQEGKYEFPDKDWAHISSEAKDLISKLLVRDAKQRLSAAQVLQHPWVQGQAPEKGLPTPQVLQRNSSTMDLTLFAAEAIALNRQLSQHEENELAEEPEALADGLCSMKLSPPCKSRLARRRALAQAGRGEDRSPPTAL

Usually AUC(0-t) stands for exposure summed from dosing to a finite time, without extrapolation to infinity. Read a high AUC(0-t) as more exposure. As usually defined, the Cmax is the maximum level reached in the sampled fluid or tissue. The Tmax is the time at which the peak concentration occurs. The half-life is how long it takes for the measured level to halve. A high value points to slow decline. The term IC50 denotes the concentration needed to halve the response being measured. In the case of `Cl.Nc1cc(Nc2cc(Cl)c3n(c2=O)C2(CCC(F)(F)CC2)NC3=O)ncn1` [Cpd. No. 99, 6-[(6-aminopyrimidin-4-yl)amino]-8-chloro-4′,4′-difluoro-spiro[2H-imidazo[1,5-a]pyridine-3,1′-cyclohexane]-1,5-dione hydrochloride], the Tlast in series [1] is on record as 8 h. Besides, the AUC(0-t) in the series “in vivo” (AUClast) turned out to be 1380 ng·h/mL. In “in vivo”, the peak level (Cmax) was 400 ng/mL, the Tmax was 18 min and the half-life was 96 min. Further, at Mnk1, the IC50 is under 10 nM. Also, at Mnk2, the IC50 was under 10 nM.

Regarding `Cc1cc(Nc2cc(N)ncn2)c(=O)n2c1C(=O)NC2(C)C.Cl` [Cpd. No. 102, 6-((6-aminopyrimidin-4-yl)amino)-3,3,8-trimethyl-2,3-dihydroimidazo[1,5-a]pyridine-1,5-dione hydrochloride], in the series “in vivo”, the Cmax was 1800 ng/mL, the Tmax is 18 min and the half-life was 84 min. The IC50 against Mnk2 is under 10 nM.
